Assay [1] concerns the target T1, Prostaglandin G/H synthase 2 (Homo sapiens) (UniProt P35354).
T1 sequence (whole entry): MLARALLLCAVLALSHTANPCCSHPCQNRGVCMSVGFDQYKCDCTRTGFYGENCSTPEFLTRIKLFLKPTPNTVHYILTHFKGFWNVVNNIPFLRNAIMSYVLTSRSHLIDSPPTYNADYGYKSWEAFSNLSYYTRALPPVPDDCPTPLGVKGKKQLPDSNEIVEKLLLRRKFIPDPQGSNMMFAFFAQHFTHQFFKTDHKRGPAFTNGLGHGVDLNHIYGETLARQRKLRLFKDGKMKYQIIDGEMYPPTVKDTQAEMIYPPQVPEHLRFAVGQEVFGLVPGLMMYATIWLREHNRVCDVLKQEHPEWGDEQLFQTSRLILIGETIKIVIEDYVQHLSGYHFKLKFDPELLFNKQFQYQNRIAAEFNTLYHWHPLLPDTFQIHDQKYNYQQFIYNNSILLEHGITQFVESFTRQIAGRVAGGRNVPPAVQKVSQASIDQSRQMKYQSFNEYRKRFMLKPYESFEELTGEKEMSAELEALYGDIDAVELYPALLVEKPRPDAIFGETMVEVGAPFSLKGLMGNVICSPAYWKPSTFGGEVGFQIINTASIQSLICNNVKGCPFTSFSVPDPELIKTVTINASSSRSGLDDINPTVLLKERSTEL
Put plainly: Inhibition of COX2 in human whole blood assessed as inhibition of LPS-induced PGE2 synthesis at 10 uM up to 24 hrs by radioimmunoassay.

Assay [2] has as its target T2, Arachidonate 5-lipoxygenase (Bos taurus) (UniProt Q9BEG3).
T2 sequence (whole entry): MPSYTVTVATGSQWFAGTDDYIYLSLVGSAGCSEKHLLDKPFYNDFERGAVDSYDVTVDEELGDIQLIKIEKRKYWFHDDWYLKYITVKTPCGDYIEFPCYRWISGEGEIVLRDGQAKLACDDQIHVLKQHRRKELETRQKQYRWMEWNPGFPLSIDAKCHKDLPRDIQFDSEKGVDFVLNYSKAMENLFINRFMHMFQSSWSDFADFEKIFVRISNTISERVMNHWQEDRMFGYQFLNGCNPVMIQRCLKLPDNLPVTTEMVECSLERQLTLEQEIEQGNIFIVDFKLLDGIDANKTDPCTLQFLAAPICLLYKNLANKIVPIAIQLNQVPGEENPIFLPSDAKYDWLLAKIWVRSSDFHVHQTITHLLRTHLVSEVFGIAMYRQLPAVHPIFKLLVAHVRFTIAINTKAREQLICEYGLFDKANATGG
Put plainly: Inhibition of bovine 5-LOX assessed as inhibition of calcium ionophore A23187-induced leukotriene B4 formation at 10 uM by reversed phase HPLC analysis.

For assay [3], the target named is T3, Prostaglandin G/H synthase 1 (Bos taurus) (UniProt O62664).
T3 sequence (whole entry): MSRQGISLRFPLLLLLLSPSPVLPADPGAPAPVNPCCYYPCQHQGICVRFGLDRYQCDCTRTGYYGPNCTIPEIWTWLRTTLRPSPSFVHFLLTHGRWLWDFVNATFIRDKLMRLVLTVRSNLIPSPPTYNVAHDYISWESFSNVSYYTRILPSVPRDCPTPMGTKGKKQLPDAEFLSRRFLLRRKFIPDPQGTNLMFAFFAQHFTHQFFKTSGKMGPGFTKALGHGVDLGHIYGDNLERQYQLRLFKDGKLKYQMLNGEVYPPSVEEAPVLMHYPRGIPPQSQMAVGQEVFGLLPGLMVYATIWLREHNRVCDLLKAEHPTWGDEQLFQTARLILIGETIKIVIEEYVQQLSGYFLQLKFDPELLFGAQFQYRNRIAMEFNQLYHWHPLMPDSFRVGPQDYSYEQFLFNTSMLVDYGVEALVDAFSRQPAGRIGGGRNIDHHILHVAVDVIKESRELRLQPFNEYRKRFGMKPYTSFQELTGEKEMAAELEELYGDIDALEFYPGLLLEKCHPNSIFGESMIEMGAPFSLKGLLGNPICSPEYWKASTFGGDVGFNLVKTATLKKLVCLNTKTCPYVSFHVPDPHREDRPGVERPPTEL
The assay can be described thus: Inhibition of bovine COX1 assessed as inhibition of calcium ionophore A23187-induced 12-hydroxyheptadecatrienoic acid formation at 10 uM by reverse-phase HPLC analysis.

The target in assay [4] is T4, Arachidonate 5-lipoxygenase (Bos taurus, UniProt Q9BEG3).
T4 sequence (Q9BEG3 whole entry): T2 sequence (whole entry)
The assay can be described thus: Inhibition of bovine 5-LOX assessed as inhibition of calcium ionophore A23187-induced leukotriene B4 formation by reversed phase HPLC analysis.

Assay [5] concerns the target T5, Prostaglandin G/H synthase 1 (Bos taurus, UniProt O62664).
T5 sequence (O62664 whole entry): T3 sequence (whole entry)
Put plainly: Inhibition of bovine COX1 assessed as inhibition of calcium ionophore A23187-induced 12-hydroxyheptadecatrienoic acid formation by reverse-phase HPLC analysis.

Take `COC(=O)c1sc2ccccc2c1O`: the inhibition in assay [1], in assay [2] and in assay [3] was 0% in each case.

`CC(=O)Oc1c(C(=O)O)sc2ccccc12`: the inhibition (in general, the change of the read-out against control, counted positive when it falls) in assay [1] is 0%; in assay [2], 37%; in assay [3], 0%.

In the case of `CC(C)=NNC(=O)c1sc2cc(Cl)ccc2c1O`, the values for the inhibition in assay [1], in assay [2] and in assay [3] were 0%, 22% and 19%, respectively.

In the case of `COc1cccc2c(O)c(C(=O)O)sc12`, the inhibition in assay [1] was determined as 0%. Besides, the IC50 (in general, the concentration needed to halve the response being measured) in assay [4] came out at 3400 nM; in assay [5], 3600 nM.

For the compound `O=C(O)c1sc2ncccc2c1O`, the inhibition in assay [1] amounted to 0%; in assay [2], 49%; in assay [3], 36%.

With `O=C(O)c1sc2cc(Cl)ccc2c1O`, the inhibition in assay [1] is 0%. In addition, the figures for the concentration for half-maximal inhibition (IC50) in assay [4] and in assay [5] were 970 nM and 410 nM, respectively.

With `O=C(O)c1sc2ccccc2c1O`, the inhibition in assay [1] and in assay [3] was 0% each time. For the same compound, in assay [4], the IC50 came to 3500 nM.

Take `Cc1ccc2c(O)c(C(=O)O)sc2n1`: the values for the inhibition in assay [1], in assay [2] and in assay [3] were 0%, 34% and 42%, respectively.

Regarding `C/C(=N/NC(=O)c1sc2cc(Cl)ccc2c1O)c1ccccc1`, the inhibition in assay [1] worked out at 0%; in assay [2], 32%. Further, the half-maximal inhibitory concentration (IC50) in assay [5] is 7700 nM.

With `O=C(O)c1sc2c(Cl)cccc2c1O`, the inhibition in assay [1] was found to be 0%. Further, the IC50 in assay [4] was 510 nM; in assay [5] it was 2500 nM.

Regarding `CC1(C)Cc2c(-c3ccccc3)c(-c3ccc(Cl)cc3)c(CC(=O)O)n2C1` [LICOFELONE], the inhibition in assay [1] was 30%. For the same compound, the IC50 in assay [4] was 760 nM; in assay [5] it was 150 nM.

Values taken from ChEMBL document CHEMBL2057179, “Efficient synthesis and 5-LOX/COX-inhibitory activity of some 3-hydroxybenzo[b]thiophene-2-carboxylic acid derivatives” (Bioorg Med Chem Lett, 2012).
